SMILES strings stand for the structures.

One assay relates to human washed platelets. Kind of assay: Inhibition of Convulxin-mediated platelet calcium mobilization in vitro. In kind it is cell-based. Particulars: 125 ng/mL Convulxin. On the procedure:
Inhibition of Convulxin-induced calcium mobilization was determined in human washed platelets using the FLIPR Calcium 3 Assay Kit (Molecular Devices, Sunnyvale, Calif.). For preparation of washed platelets, human venous blood was collected from healthy, drug-free volunteers into ACD (85 mM sodium citrate, 111 mM glucose, 71.4 mM citric acid) containing PGI2 (1.25 mL ACD containing 0.2 μM PGI2 final; PGI2 from Sigma, St. Louis, Mo.). Platelet-rich plasma (PRP) was prepared by centrifugation at 160×g for 20 minutes at room temperature. Washed platelets were prepared by centrifuging PRP for 10 minutes at 730×g and resuspending the platelet pellet in CGS (13 mM sodium citrate, 30 mM glucose, 120 mM NaCl; 2 mL CGS/10 mL original blood volume). The wash in CGS was repeated a second time, the platelets were collected by centrifugation at 730 g for 10 minutes and resuspended at a concentration of 3×10^8 platelets/mL in Hepes-Tyrode's buffer (10 mM Hepes, 138 mM NaCl, 5.5 mM glucose, 2.9 mM KCl, 12 mM NaHCO3, pH 7.4). This platelet suspension was allowed to rest for 45 minutes at room temperature before use in calcium mobilization assays.
For 96-well plate calcium-mobilization experiments, equal volumes of 3×10^8 washed platelets/mL were incubated with equal volumes of Calcium-3 Assay Reagent A resuspended in 1× Hank's Balanced Salt Solution, pH 7.4, 20 mM Hepes buffer. The total reaction volume of 0.2 mL/well included 1.5×10^8/mL washed platelet/Calcium-3 Assay reagent A mix, 10 μM Eptifibatide (Millennium Pharmaceuticals Inc, Cambridge, Mass.) and serial dilutions (1:3) of test compounds in 0.75% DMSO. DMSO alone was added to 1 well of each 8 set to allow for a maximal calcium-mobilization reading. After a 20 minute preincubation at room temperature, the 96-well microplate reader was loaded into the FlexStation (Molecular Devices, Sunnyvale, Calif.). The FlexStation experimental conditions for measuring calcium mobilization were set up using SOFTMax Pro. The settings used were as follows: Fluorescence parameters-assay mode: flex, excitation 485 nm, 525 nM with a cut-off of 515 nM; Parameters—PMT sensitivity-6, pipette height 230 μl, read time 2 minutes and 40 seconds, read intervals 2 seconds, temperature-23-25° C. After 18 seconds of baseline reading, calcium mobilization was initiated by the addition of Convulxin to a final concentration of 125 ng/mL. Inhibition of calcium mobilization was calculated as the maximum response observed in the presence of inhibitor, compared to that in the absence of inhibitor. IC50s were then derived by non-linear regression analysis.
`CC1(C)Oc2ccc(Nc3nc(Nc4ccc5cn[nH]c5c4)nc4[nH]ccc34)cc2NC1=O` [Compound 16-1, 6-(2-(1H-indazol-6-ylamino)-7H-pyrrolo[2,3-d]pyrimidin-4-ylamino)-2,2-dimethyl-2H-benzo[b][1,4]oxazin-3(4H)-one]: the IC50 was below 1000 nM.

In the case of `Cc1n[nH]c2cc(Nc3nc(Nc4ccc(N5CCNCC5)cc4)nc4[nH]ccc34)ccc12` [Compound 2-2, N4-(3-methyl-1H-indazol-6-yl)-N2-(4-(piperazin-1-yl)phenyl)-7H-pyrrolo[2,3-d]pyrimidine-2,4-diamine], the IC50 was below 1000 nM. The same measure, in the same setting: with `c1cc2c(Nc3ccc4cn[nH]c4c3)nc(Nc3ccc(N4CCNCC4)cc3)nc2[nH]1` [Compound 1-2, N4-(1H-indazol-6-yl)-N2-(4-(piperazin-1-yl)phenyl)-7H-pyrrolo[2,3-d]pyrimidine-2,4-diamine] the figure was below 1000 nM.

On to `c1cc2c(Nc3ccc4cn[nH]c4c3)nc(Nc3ccc4cn[nH]c4c3)nc2[nH]1` [Compound 4-1, N2,N4-di(1H-indazol-6-yl)-7H-pyrrolo[2,3-d]pyrimidine-2,4-diamine], for which the IC50 is below 1000 nM. Regarding `CS(=O)(=O)N1CCN(c2ccc(Nc3nc(Nc4ccc5cn[nH]c5c4)c4cc[nH]c4n3)cc2)CC1` [Compound 8-1, N4-(1H-indazol-6-yl)-N2-(4-(4-(methylsulfonyl)piperazin-1-yl)phenyl)-7H-pyrrolo[2,3-d]pyrimidine-2,4-diamine], the IC50 was below 1000 nM. Turning to `CS(=O)(=O)N1CCN(c2ccc(Nc3nc(Nc4ccc5cnn(S(C)(=O)=O)c5c4)c4cc[nH]c4n3)cc2)CC1` [Compound 8-2, N4-(1-(methylsulfonyl)-1H-indazol-6-yl)-N2-(4-(4-(methylsulfonyl)piperazin-1-yl)phenyl)-7H-pyrrolo[2,3-d]pyrimidine-2,4-diamine], the IC50 is below 1000 nM. The same measure, in the same setting: then `CC1(C)Oc2ccc(Nc3nc(Nc4ccc5c(c4)NC(=O)C(C)(C)O5)c4cc[nH]c4n3)cc2NC1=O` [Compound 3-1], with below 1000 nM.

Another assay concerns human platelet-rich plasma (PRP). Description: Convulxin-induced aggregation assay (cuvette light transmittance). In kind it is cell-based. Particulars: 125-250 ng/mL Convulxin, read-out: IC50, inhibition of convulxin-induced aggregation of platelet rich plasma. On the procedure: For preparation of human platelet-rich plasma (PRP) for aggregation assays, human venous blood was collected from healthy, drug-free volunteers into 0.38% sodium citrate (0.013 M, pH 7.0 final). PRP was prepared by centrifugation of whole blood at 160×g for 20 minutes at room temperature. The PRP layer was removed, transferred to a new tube, and the platelet count was adjusted, if necessary, to achieve a platelet concentration of ˜3×10^8 platelets/mL using platelet-poor plasma (PPP). PPP was prepared by centrifugation of the remaining blood sample (after removal of PRP) for 20 minutes at 800×g. This preparation of PRP may be subsequently used for aggregation assays in either a 96-well plate or standard cuvette aggregometry.
Inhibition of Convulxin-induced aggregation was determined by cuvette light transmittance aggregation assays. Serial dilutions (1:2) of test compounds were prepared in 30% DMSO in a 96-well V-bottom plate (final DMSO concentration in the cuvette was 0.3%). The test compound (5 μl of serial dilutions in DMSO) was preincubated with PRP for 20 minutes prior to initiation of the aggregation reactions, which were performed in a ChronoLog aggregometer by addition of agonist (125-250 ng/mL Convulxin) to 495 μL of PRP at 37° C. The aggregation reaction was recorded for 4 minutes, and the maximum extent of aggregation was determined by the difference in extent of aggregation at baseline, compared to the maximum aggregation that occurred during the 4 minute period of the assay. Inhibition of aggregation was calculated as the maximum aggregation observed in the presence of inhibitor, compared to that in the absence of inhibitor. IC50s were derived by non-linear regression analysis.
As for `C[S+]([O-])c1ccc(Nc2nc(Nc3ccc4cn[nH]c4c3)c3cc[nH]c3n2)cc1` (stereo not shown) [Compound 10-2, N4-(1H-indazol-6-yl)-N2-(4-(methylsulfinyl)phenyl)-7H-pyrrolo[2,3-d]pyrimidine-2,4-diamine], the IC50 is at most 50 µM. As for `c1cc2c(Nc3ccc4scnc4c3)nc(Nc3ccc4cn[nH]c4c3)nc2[nH]1` [Compound 19-1, N4-(benzo[d]thiazol-5-yl)-N2-(1H-indazol-6-yl)-7H-pyrrolo[2,3-d]pyrimidine-2,4-diamine], the IC50 is at most 50 µM. Consider `NC(=O)c1ccc(Nc2nc(Nc3ccc4cn[nH]c4c3)c3cc[nH]c3n2)cc1` [Compound 12-1, 4-(4-(1H-indazol-6-ylamino)-7H-pyrrolo[2,3-d]pyrimidin-2-ylamino)benzamide], for which the IC50 is at most 50 µM. On the same count and under the same terms, then `NS(=O)(=O)c1ccc(Nc2nc(Nc3ccc4cn[nH]c4c3)c3cc[nH]c3n2)cc1` [Compound 11-1, 4-(4-(1H-indazol-6-ylamino)-7H-pyrrolo[2,3-d]pyrimidin-2-ylamino)benzenesulfonamide], with at most 50 µM. Still for that read-out and setting: with `Cc1n[nH]c2cc(Nc3nc(Nc4ccc(N5CCNCC5)cc4)nc4[nH]ccc34)ccc12` [Compound 2-2, N4-(3-methyl-1H-indazol-6-yl)-N2-(4-(piperazin-1-yl)phenyl)-7H-pyrrolo[2,3-d]pyrimidine-2,4-diamine] the figure was at most 50 µM. Still for that read-out and setting: with `CSc1ccc(Nc2nc(Nc3ccc4cn[nH]c4c3)c3cc[nH]c3n2)cc1` [Compound 10-1, N4-(1H-indazol-6-yl)-N2-(4-(methylthio)phenyl)-7H-pyrrolo[2,3-d]pyrimidine-2,4-diamine] the figure was at most 50 µM. Take `c1cc2c(Nc3ccc4cn[nH]c4c3)nc(Nc3ccc(N4CCNCC4)cc3)nc2[nH]1` [Compound 1-2, N4-(1H-indazol-6-yl)-N2-(4-(piperazin-1-yl)phenyl)-7H-pyrrolo[2,3-d]pyrimidine-2,4-diamine]: the IC50 is at most 50 µM. As to `Cn1ncc2cc(Nc3nc(Nc4ccc(C(N)=O)cc4)nc4[nH]ccc34)ccc21` [Compound 25-1, 4-(4-(1-methyl-1H-indazol-5-ylamino)-7H-pyrrolo[2,3-d]pyrimidin-2-ylamino)benzamide], the IC50 was at most 50 µM. For `OC1CCN(c2ccc(Nc3nc(Nc4ccc5cn[nH]c5c4)c4cc[nH]c4n3)cc2)CC1` [Compound 7-1, 1-(4-(4-(1H-indazol-6-ylamino)-7H-pyrrolo[2,3-d]pyrimidin-2-ylamino)phenyl)piperidin-4-ol], the IC50 was at most 50 µM.

Turning to `CC(=O)N1CCN(c2ccc(Nc3nc(Nc4ccc5cnn(C)c5c4)c4cc[nH]c4n3)cc2)CC1` [Compound 22-2, 1-(4-(4-(4-(1-methyl-1H-indazol-6-ylamino)-7H-pyrrolo[2,3-d]pyrimidin-2-ylamino)phenyl)piperazin-1-yl)ethanone], the IC50 is at most 50 µM. On to `CC(=O)N1CCN(c2ccc(Nc3nc(Nc4ccc5c(C)n[nH]c5c4)c4cc[nH]c4n3)cc2)CC1` [Compound 2-1, 1-(4-(4-(4-(3-methyl-1H-indazol-6-ylamino)-7H-pyrrolo[2,3-d]pyrimidin-2-ylamino)phenyl)piperazin-1-yl)ethanone], for which the IC50 is at most 50 µM. For `CN1CCN(c2ccc(Nc3nc(Nc4ccc5cn[nH]c5c4)c4cc[nH]c4n3)cc2)CC1` [Compound 13-1, N4-(1H-indazol-6-yl)-N2-(4-(4-methylpiperazin-1-yl)phenyl)-7H-pyrrolo[2,3-d]pyrimidine-2,4-diamine], the IC50 is at most 50 µM. Still for that read-out and setting: then `CS(=O)(=O)N1CCN(c2ccc(Nc3nc(Nc4ccc5cn[nH]c5c4)c4cc[nH]c4n3)cc2)CC1` [Compound 8-1, N4-(1H-indazol-6-yl)-N2-(4-(4-(methylsulfonyl)piperazin-1-yl)phenyl)-7H-pyrrolo[2,3-d]pyrimidine-2,4-diamine], with at most 50 µM; and `CS(=O)(=O)N1CCN(c2ccc(Nc3nc(Nc4ccc5cnn(S(C)(=O)=O)c5c4)c4cc[nH]c4n3)cc2)CC1` [Compound 8-2, N4-(1-(methylsulfonyl)-1H-indazol-6-yl)-N2-(4-(4-(methylsulfonyl)piperazin-1-yl)phenyl)-7H-pyrrolo[2,3-d]pyrimidine-2,4-diamine], with at most 50 µM; and `CN(C)C(=O)C1CCN(c2ccc(Nc3nc(Nc4ccc5nc[nH]c5c4)c4cc[nH]c4n3)cc2)CC1` [Compound 18-1, 1-(4-(4-(1H-benzo[d]imidazol-6-ylamino)-7H-pyrrolo[2,3-d]pyrimidin-2-ylamino)phenyl)-N,N-dimethylpiperidine-4-carboxamide], with at most 50 µM.

Consider `CC(=O)N(C)c1ccc(Nc2nc(Nc3ccc4nc[nH]c4c3)c3cc[nH]c3n2)cc1` [Compound 17-1, N-(4-(4-(1H-benzo[D]imidazol-6-ylamino)-7H-pyrrolo[2,3-d]pyrimidin-2-ylamino)phenyl)-N-methylacetamide], for which the half-maximal inhibitory concentration (IC50) is at most 50 µM. Still for that read-out and setting: with `CC(=O)N1CCN(c2ccc(Nc3nc(Nc4ccc5cn[nH]c5c4)c4c(C)c[nH]c4n3)cc2)CC1` [Compound 15-1, 1-(4-(4-(4-(1H-indazol-6-ylamino)-5-methyl-7H-pyrrolo[2,3-d]pyrimidin-2-ylamino)phenyl)piperazin-1-yl)ethanone] the figure was at most 50 µM. On the same count and under the same terms, then `c1cc2c(Nc3ccc4ncsc4c3)nc(Nc3ccc4cn[nH]c4c3)nc2[nH]1` [Compound 20-1, N4-(benzo[d]thiazol-6-yl)-N2-(1H-indazol-6-yl)-7H-pyrrolo[2,3-d]pyrimidine-2,4-diamine], with at most 50 µM; and `CC(=O)N(C)c1ccc(Nc2nc(Nc3ccc4cn[nH]c4c3)c3cc[nH]c3n2)cc1` [Compound 6-1, N-(4-(4-(1H-indazol-6-ylamino)-7H-pyrrolo[2,3-d]pyrimidin-2-ylamino)phenyl)-N-methylacetamide], with at most 50 µM; and `Cn1ncc2ccc(Nc3nc(Nc4ccc(N5CCNCC5)cc4)nc4[nH]ccc34)cc21` [Compound 22-1, N4-(1-methyl-1H-indazol-6-yl)-N2-(4-(piperazin-1-yl)phenyl)-7H-pyrrolo[2,3-d]pyrimidine-2,4-diamine], with at most 50 µM. Still for that read-out and setting: then `CC(=O)N1CCN(c2ccc(Nc3nc(Nc4ccc5[nH]ncc5c4)c4cc[nH]c4n3)cc2)CC1` [Compound 14-1, 1-(4-(4-(4-(1H-indazol-5-ylamino)-7H-pyrrolo[2,3-d]pyrimidin-2-ylamino)phenyl)piperazin-1-yl)ethanone], with at most 50 µM.
